Test results reported in patent US20250230149A1, “MGLUR5 MODULATING COMPOUNDS, COMPOSITIONS, AND METHODS OF USE” (Allyx Therapeutics, Inc., priority 2022, published 2025).
≈ marks a conversion by molar mass, not a printed value.

Experiments:
[1] = Phase I open-label single ascending dose study; type: in vivo, healthy male and female participants; conditions: single oral doses 10-200 mg
Method: This was an open-label, single ascending doses (SAD) study in healthy male and female participants 50 to 80 years of age (inclusive) with no history of cognitive impairment to evaluate the safety of single oral doses of Compound 1.
Six cohorts of 6 participants each received a single oral dose of Compound 1 in the fasted state at the following dose levels: 10, 40, 70, 100, 150, and 200 mg and then were followed for 7 days; the starting dose of 10 mg was <10% of the 140 mg human equivalent dose (HED) of the rat NOAEL in the GLP 28-day rat study of 15 mg/kg.
Doses were administered in an inpatient setting where all participants were closely monitored prior to discharge on Day 3, with follow-up in-person visits occurring on Days 4 and 7 and a phone call to inquire about general health occurring on Day 5.
Compound 1 administration was carefully monitored within and between cohorts to ensure patient safety and determination of whether to open the next dose cohort was made after all participants in a given cohort had completed the study and all available clinical and safety data were reviewed by the Investigator, Medical Monitor, DSMB, and IND Sponsor.
Following study drug administration, vital signs were monitored every 1 hour for the first 8 hours and then every 3 hours until discharge on Day 3 and an ECG was performed at approximately 6, 24, and 48 hours after drug administration. In order to monitor for changes in consciousness, the Glasgow Coma Scale (GCS) was administered pre-dose and then every 2 hours for the first 8 hours and then every 3 hours until discharge on Day 3. In order to monitor for cognitive or psychiatric side effects, the MOCA, GDS, and NPIQ were administered prior to oral dose administration, again at approximately 6 hours post-dose (approximate peak concentration), and approximately 24 hours post-dose. Adverse events were monitored continuously. Blood was collected for safety laboratory studies prior to drug dose administration and on Days 2 and 3.

[2] = Solubility in EtOAc/heptane mixtures by HPLC; type: physicochemical; conditions: organic solvent or mixture, thermodynamic from solid
Method: Solubility data were generated applying the following protocol: slurries of Compound 1 were prepared and allowed to equilibrate at 20° C. under stirring for about 18 hours. To determine the concentration in supernatant, about 0.1 mL of slurry was sampled with syringe, filtered, weighed, diluted with MeCN, and injected into an HPLC. […] Samples were cooled to 20° C., and solid residues were isolated by filtration on 20-μm PTFE filter, dried under vacuum at 40° C., and submitted to XRPD analysis. Compound 1 peak area for each sample was recorded, and solubility data were calculated using previously determined response factor (245 nm, 1460 mAU*sec/mg/mL, Table 7). The data were combined and visualized on chart with the solubility as function of the percentage of heptane by volume. […] Solubility smoothly decreases with the increase in heptane amount.

CYP2C8 = molecular target: T1, CYP2C8 (Homo sapiens, UniProt P10632); test: CYP450 reaction phenotyping in Supersomes, CYP2C8; type: in vitro ADME
T1 construct: purchased
T1 sequence (P10632 whole entry): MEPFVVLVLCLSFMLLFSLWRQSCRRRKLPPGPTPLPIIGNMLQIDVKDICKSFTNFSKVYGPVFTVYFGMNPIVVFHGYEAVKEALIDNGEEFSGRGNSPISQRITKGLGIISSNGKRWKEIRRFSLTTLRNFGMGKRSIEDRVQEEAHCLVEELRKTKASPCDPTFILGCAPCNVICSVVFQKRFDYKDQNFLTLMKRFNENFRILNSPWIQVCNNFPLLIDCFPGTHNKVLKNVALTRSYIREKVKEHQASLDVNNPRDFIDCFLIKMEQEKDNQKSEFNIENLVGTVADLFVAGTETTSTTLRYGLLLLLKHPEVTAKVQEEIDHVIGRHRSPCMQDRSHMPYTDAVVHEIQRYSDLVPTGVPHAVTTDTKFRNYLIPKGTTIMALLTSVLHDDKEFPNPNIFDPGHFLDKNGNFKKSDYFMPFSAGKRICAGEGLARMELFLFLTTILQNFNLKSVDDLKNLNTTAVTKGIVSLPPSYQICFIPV
Method: (§1) In Vitro CYP450 Reaction Phenotyping Study in Supersomes™ Over-Expressing Human CYP Enzymes
(§2) The CYPP450 enzymes involved in the Phase I metabolism of Compound 1 Form A were investigated in vitro. Compound 1 Form A was metabolized by CYP1A2, CYP2D6 and CYP3A4 and with T1/2 values of 64, 14, and 176 min, respectively, and CLint of 0.261, 0.984 and 0.0786 μL/min/pmol CYP, respectively. No evidence of Compound 1 metabolism by CYP2B6, CYP2C8, CYP2C9 and CYP2C19 was observed.

[3] = Intravenous and oral cross-over pharmacokinetic study; type: in vivo, male Sprague Dawley rats; conditions: male rats, IV 1 mg/kg
Method: This study assessed the PK of Compound 1 AH Form A in male Sprague Dawley rats (3/group) following single IV (intravenous) administration at 1 mg/kg as a solution in 2.5% N-Methyl-2-pyrrolidone (NMP)+1% Solutol HS15 in water or a PO (oral) administration of 3 formulations at 5 and 50 mg/kg, administered to the same animals in a cross over with 7 days recovery.
Serial plasma samples were collected at intervals to 24 h post dose and the level of Compound 1 determined in each plasma sample by LC-MS/MS.

CYP2B6 = molecular target: T2, CYP2B6 (Homo sapiens, UniProt P20813); test: CYP450 reaction phenotyping in Supersomes, CYP2B6; type: in vitro ADME
T2 construct: purchased
T2 sequence (P20813 whole entry): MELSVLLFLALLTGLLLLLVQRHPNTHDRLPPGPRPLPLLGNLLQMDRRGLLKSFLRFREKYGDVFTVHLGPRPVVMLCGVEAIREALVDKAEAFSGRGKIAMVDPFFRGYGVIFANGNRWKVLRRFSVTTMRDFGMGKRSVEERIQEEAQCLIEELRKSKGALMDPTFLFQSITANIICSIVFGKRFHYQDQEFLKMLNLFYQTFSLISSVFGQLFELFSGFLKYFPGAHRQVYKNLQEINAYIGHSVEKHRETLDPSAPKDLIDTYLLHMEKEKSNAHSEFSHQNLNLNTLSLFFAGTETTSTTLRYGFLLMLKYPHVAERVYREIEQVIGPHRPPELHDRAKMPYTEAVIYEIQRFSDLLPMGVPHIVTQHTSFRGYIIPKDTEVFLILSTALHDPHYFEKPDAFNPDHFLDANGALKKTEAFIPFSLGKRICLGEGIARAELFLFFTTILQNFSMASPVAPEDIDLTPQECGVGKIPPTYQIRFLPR
Method: as §1, §2

mGluR5 = mGluR5 (Homo sapiens, UniProt P41594); test: [3H]-MPEPy displacement from mGluR5; type: binding; conditions: read-out: inhibitor constant (Ki) for [3H]-MPEPy displacement from mGluR5
Sequence of mGluR5 (P41594 21-1212): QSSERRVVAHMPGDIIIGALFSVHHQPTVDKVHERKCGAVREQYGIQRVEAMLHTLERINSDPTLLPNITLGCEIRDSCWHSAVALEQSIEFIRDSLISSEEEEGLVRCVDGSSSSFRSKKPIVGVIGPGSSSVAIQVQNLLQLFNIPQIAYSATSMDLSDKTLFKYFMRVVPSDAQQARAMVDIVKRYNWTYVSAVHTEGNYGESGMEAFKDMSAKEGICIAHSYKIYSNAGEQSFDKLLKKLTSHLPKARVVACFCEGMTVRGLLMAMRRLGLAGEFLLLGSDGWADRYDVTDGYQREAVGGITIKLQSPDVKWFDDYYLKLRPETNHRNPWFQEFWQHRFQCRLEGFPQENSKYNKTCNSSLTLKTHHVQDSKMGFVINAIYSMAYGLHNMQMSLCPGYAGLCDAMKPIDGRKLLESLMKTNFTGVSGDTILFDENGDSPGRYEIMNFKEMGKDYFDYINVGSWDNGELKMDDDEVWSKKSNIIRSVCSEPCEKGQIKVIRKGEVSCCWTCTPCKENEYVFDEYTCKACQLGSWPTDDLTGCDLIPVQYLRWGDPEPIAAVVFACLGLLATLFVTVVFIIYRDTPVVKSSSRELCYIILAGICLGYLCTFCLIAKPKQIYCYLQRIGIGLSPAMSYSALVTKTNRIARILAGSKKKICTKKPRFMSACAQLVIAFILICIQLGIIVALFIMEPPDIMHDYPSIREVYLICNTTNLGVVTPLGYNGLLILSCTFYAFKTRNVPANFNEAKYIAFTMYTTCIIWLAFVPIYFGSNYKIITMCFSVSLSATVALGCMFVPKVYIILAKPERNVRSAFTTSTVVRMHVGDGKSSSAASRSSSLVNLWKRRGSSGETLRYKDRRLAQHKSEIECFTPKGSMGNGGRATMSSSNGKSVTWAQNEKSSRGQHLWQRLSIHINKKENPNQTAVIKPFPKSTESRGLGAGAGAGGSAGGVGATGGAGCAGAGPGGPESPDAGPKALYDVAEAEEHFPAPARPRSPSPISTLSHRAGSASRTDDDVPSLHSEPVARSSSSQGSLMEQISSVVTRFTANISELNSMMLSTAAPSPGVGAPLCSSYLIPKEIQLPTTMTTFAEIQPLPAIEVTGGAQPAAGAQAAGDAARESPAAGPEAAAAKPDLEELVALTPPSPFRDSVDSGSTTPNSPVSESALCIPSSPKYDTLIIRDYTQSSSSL

Structure (SMILES): O=C1N[C@H](c2cncc(C#Cc3ccccc3)c2)[C@@H](c2ccccc2Cl)O1 [Compound 1, (4R,5R)-5-(2-chlorophenyl)-4-(5-(phenylethynyl)pyridin-3-yl)oxazolidin-2-one]
- clinically significant changes in consciousness (GCS), cognitive or psychiatric side effects (MOCA, GDS, NPIQ) [1]: no evidence
- intensity of TEAEs [1]: mild or moderate
- deaths, SAEs, severe TEAEs ([1]; 36 participants): no deaths, SAEs, or severe TEAEs
- number of TEAEs considered possibly related to treatment ([1]; 36 participants): 8
- tolerability ([1]; fasted, healthy participants 50 to 80 years): well tolerated
- solubility ([2]; EtOAc/heptane 20:80 (% v/v), 20° C.): 2 mg/mL (≈ 5.34 mM)
- solubility ([2]; EtOAc/heptane 20:80 (% v/v), 45° C.): 3 mg/mL (≈ 8 mM)
- solubility ([2]; EtOAc/heptane 32:68 (% v/v), 20° C.): 6 mg/mL (≈ 16 mM)
- solubility ([2]; EtOAc/heptane 32:68 (% v/v), 45° C.): 10 mg/mL (≈ 26.7 mM)
- solubility ([2]; EtOAc/heptane 40:60 (% v/v), 20° C.): 11 mg/mL (≈ 29.3 mM)
- solubility ([2]; EtOAc/heptane 40:60 (% v/v), 45° C.): 17 mg/mL (≈ 45.4 mM)
- solubility ([2]; EtOAc/heptane 50:50 (% v/v), 20° C.): 20 mg/mL (≈ 53.4 mM)
- solubility ([2]; EtOAc/heptane 50:50 (% v/v), 45° C.): 34 mg/mL (≈ 90.7 mM)
- solubility ([2]; EtOAc/heptane 60:40 (% v/v), 20° C.): 33 mg/mL (≈ 88 mM)
- solubility ([2]; EtOAc/heptane 60:40 (% v/v), 45° C.): 61 mg/mL (≈ 163 mM)
- solubility ([2]; EtOAc/heptane 70:30 (% v/v), 20° C.): 49 mg/mL (≈ 131 mM)
- solubility ([2]; EtOAc/heptane 70:30 (% v/v), 45° C.): 85 mg/mL (≈ 227 mM)
- solubility ([2]; EtOAc/heptane 80:20 (% v/v), 20° C.): 69 mg/mL (≈ 184 mM)
- solubility ([2]; EtOAc/heptane 80:20 (% v/v), 45° C.): 124 mg/mL (≈ 331 mM)
- solubility ([2]; EtOAc/heptane 90:10 (% v/v), 20° C.): 95 mg/mL (≈ 253 mM)
- solubility ([2]; EtOAc/heptane 90:10 (% v/v), 45° C.): 177 mg/mL (≈ 472 mM)
- solubility ([2]; EtOAc/heptane 100:0 (% v/v), 20° C.): 115 mg/mL (≈ 307 mM)
- solubility ([2]; EtOAc/heptane 100:0 (% v/v), 45° C.): 187 mg/mL (≈ 499 mM)
- metabolism by CYP2C8 (CYP2C8): No evidence
- clearance ([3]; Sprague Dawley, rat, plasma): 5.98 mL/min/kg
- half-life ([3]; Sprague Dawley, rat, plasma): 4.49 h
- Cmax ([3]; Sprague Dawley, rat, plasma, solution in 2.5% NMP + 1% Solutol HS15 in water): 595 ng/mL
- Vd ([3]; Sprague Dawley, rat, plasma, read-out: Vdss): 2.23 L/kg
- AUCinf (in AUClast column, footnote 1) [3]: 2910^1 ng · h/mL
- metabolism by CYP2B6 (CYP2B6): No evidence
- Ki (mGluR5): 0.6 nM
